Strand notation (5' to 3'): a small letter for the sugar, then the base; units joined by * are phosphorothioate-linked, units joined directly phosphodiester-linked; [ ] holds rarer units or linkages, { } end groups; capitals alone tell only the bases. e = 2'-O-(2-methoxyethyl) (MOE); l = locked nucleic acid (LNA); [5mC] = 5-methylcytosine; d = 2'-deoxy (DNA)
System: human ABCB11 mRNA
Experiment: ASO treatment of primary human hepatocytes (PHH), ABCB11 mRNA by RT-qPCR normalized to B2M
Type: cell-based
Settings: for ABCB11 FC mRNA (5 μM ASO vs. untreated) / ABCB11 mRNA FC (5 μM ASO vs. UNT): primary human hepatocytes; for ABCB11 FC mRNA (5 μM ASO vs. untreated): 5 μM ASO with PO-modifications, normalized to untreated hepatocytes; for ABCB11 mRNA FC (5 μM ASO vs. UNT): normalized to untreated PHHs (UNT)
Procedure, shortened: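 ABCB11 mRNA was quantified by Taqman RT-qPCR relative to B2M and expressed as fold over untreated cells. Cells were cryopreserved primary human hepatocytes given ASO in Matrigel-supplemented medium 4 h after plating, at 1.25, 2.5, 5 or 10 μM (5 μM for screening), and harvested after 72 hrs.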

Row | Substance | ABCB11 mRNA FC (5 μM ASO vs. UNT) [fold change] | also measured
1 | CO-11216 (antisense eG*eT*lG*eG*lAeG*l[5mC]*eA*lAeA*l[5mC]*eT*lAeG*lG*e[5mC]*lAe[5mC]*eT*eG) |  | ABCB11 FC mRNA (5 μM ASO vs. untreated): 2.58 fold change
2 | CO-7015 (antisense eA*eG*eT*eG*eA*dG*dG*d[5mC]*eA*dT*d[5mC]*dA*dG*eG*dT*dA*dA*eG*eT*eT*e[5mC]*e[5mC]) | 1.257 | 
3 | CO-7045 (antisense eT*eG*eT*eT*eT*dT*dG*d[5mC]*dT*dT*dG*dG*dT*d[5mC]*dA*eA*eG*eA*eG*eG) | 1.112 | 
4 | CO-6989 (antisense eT*eG*lG*eA*lT*eG*lT*eA*lG*eA*lT*eG*lA*eA*lT*eG*lG*e[5mC]*eA*eA) | 1.469 | 
5 | CO-3988 (antisense eA*eA*eA*eT*eG*e[5mC]*e[5mC]*e[5mC]*eA*eA*eG*eT*eT*eT*e[5mC]*eA*eT*eT*eG*e[5mC]) | 1.827 | 
6 | CO-3984: ASO targeting the paRNA regRNA RR63 (antisense e[5mC]*eA*eT*eT*eT*eA*eG*eA*eG*eA*e[5mC]*eA*eA*eA*eG*eA*eA*eT*e[5mC]*eG) | 1.111 | upregulation of ABCB11 mRNA (PHHs, Day 3, normalized to untreated PHHs): approximately 1.5 fold
7 | CO-4044 (antisense eG*eT*eT*eG*eG*eG*eA*eT*eA*eG*e[5mC]*e[5mC]*eT*eG*eA*eA*eT*eT*e[5mC]*e[5mC]) | 0.974 | 
8 | CO-7199 (eA*eG*eG*eT*eG*eG*eA*dG*d[5mC]*dA*dA*dA*d[5mC]*dT*dA*dG*dG*e[5mC]*eA*e[5mC]*eT*eG*eA*eG; antisense) | 1.166 | 
9 | CO-4500 (antisense eA*eG*eA*e[5mC]*eT*eT*eT*eG*eG*e[5mC]*e[5mC]*eA*eG*eG*e[5mC]*eA*eA*eG*eA*e[5mC]) | 1.109 | 
10 | CO-7102 (eT*eA*eT*e[5mC]*eT*eG*eG*dA*dA*dA*dA*dT*dA*dA*dT*dG*d[5mC]*e[5mC]*eT*eT*eT*e[5mC]*eT*eA; antisense) | 1.068 | 
11 | CO-7183 (antisense eG*eT*eG*eG*eA*lG*e[5mC]*eA*eA*eA*l[5mC]*eT*eA*eG*eG*l[5mC]*eA*e[5mC]*eT*eG) | 1.295 | 
12 | CO-12747 (antisense eG*eT*eGeAeGeGe[5mC]*eA*eT*e[5mC]*eA*eG*eG*eTeAeAeGeT*eT*e[5mC]) |  | ABCB11 FC mRNA (5 μM ASO vs. untreated): 0.97 fold change
13 | CO-7069 (e[5mC]*eA*eT*lT*eT*dA*dG*lA*dG*dA*d[5mC]*lA*dA*dA*dG*lA*eA*eT*e[5mC]*eG; antisense) | 1.011 | 
14 | CO-7001 (antisense eG*eT*eG*eA*lG*eG*e[5mC]*eA*lT*e[5mC]*eA*eG*lGeT*eA*eA*lG*eT*eT*e[5mC]) | 1.237 | 
15 | CO-6991 (antisense eT*eG*eG*eA*lT*eG*eT*eA*lG*eA*eT*eG*lA*eA*eT*eG*lG*e[5mC]*eA*eA) | 1.193 | 
16 | CO-7041 (antisense eG*eT*e[5mC]*eA*eA*eG*eA*eGeG*eA*eA*eA*eG*eA*eA*e[5mC]*eT*eG*eG*e[5mC]) | 1.15 | 
17 | CO-7012 (antisense eT*eG*eT*eG*eG*dA*dT*lG*dT*dA*lG*dA*dT*lG*dA*dA*lT*dG*dG*e[5mC]*eA*eA*eG*eG) | 0.985 | 
18 | CO-7191: derivative ASO with additional chemical modifications based on parent ASO CO-4535 (eT*eG*eG*e[5mC]*lG*eT*eT*eA*lT*eT*eA*eA*lT*eT*e[5mC]*eT*lA*e[5mC]*eA*eG) | 1.676 | 
19 | CO-3999 (antisense eG*eG*e[5mC]*eA*eA*e[5mC]*e[5mC]*eT*e[5mC]*eG*eT*e[5mC]*e[5mC]*e[5mC]*e[5mC]*eT*e[5mC]*eA*e[5mC]*eT) | 1.076 | 
20 | CO-7103 (eT*eA*eT*e[5mC]*eT*eG*eG*eA*eA*eA*eA*eT*eA*eA*eT*eG*e[5mC]*e[5mC]*eT*eT*eT*e[5mC]*eT*eA; antisense) | 1.006 | 
21 | CO-7023 (antisense e[5mC]*eT*eT*eA*eT*e[5mC]*eT*eG*eG*eA*eA*eA*eA*eT*eA*eA*eT*eG*e[5mC]*e[5mC]) | 1.338 | 
22 | CO-6969 (antisense eT*eG*eT*eG*eG*eA*eT*eG*eT*eA*eG*eA*eT*eG*eA*eA*eT*eG*eG*e[5mC]) | 1.266 | 
23 | CO-4501 (antisense eG*e[5mC]*eA*eT*eG*eG*eT*eA*eG*e[5mC]*eT*eA*eG*eT*eG*eA*eT*eA*eA*eT) | 1.023 | 

Row | Substance | ABCB11 mRNA FC (5 μM ASO vs. UNT) [fold change] | also measured
24 | CO-11245 (antisense eG*eTeG*eGlA*eGe[5mC]*eAeA*lAe[5mC]*eTeA*eGlG*e[5mC]eA*e[5mC]eT*eG) |  | ABCB11 FC mRNA (5 μM ASO vs. untreated): 1.59 fold change
25 | CO-7206 (eT*eT*eG*eG*e[5mC]*lG*dT*dT*lA*dT*dT*dA*dA*lT*dT*d[5mC]*lT*eA*e[5mC]*eA*eG*eA; antisense) | 1.164 | 
26 | CO-4509 (antisense eT*eG*eG*eA*eT*eG*eT*eA*eG*eA*eT*eG*eA*eA*eT*eG*eG*e[5mC]*eA*eA) | 1.233 | 
27 | CO-12752 (antisense eG*eTeG*eA*eG*eGe[5mC]*eA*eT*e[5mC]eA*eG*eG*eTeA*eA*eG*eTeT*e[5mC]) |  | ABCB11 FC mRNA (5 μM ASO vs. untreated): 0.99 fold change
28 | CO-7008 (antisense eG*eT*eG*eG*eA*lT*dG*dT*lA*dG*dA*dT*dG*lA*dA*dT*lG*eG*e[5mC]*eA*eA*eG) | 1.175 | 
29 | CO-7163 (antisense e[5mC]*eA*eG*eA*e[5mC]*eA*eT*eG*eA*eT*eG*eT*eG*eG*eA*eG*eG*eT*eG*eG) | 1.308 | 
30 | CO-6987 (antisense eT*eG*eG*eA*lT*dG*dT*dA*lG*dA*dT*dG*lA*dA*dT*eG*lG*e[5mC]*eA*eA) | 1.026 | 
31 | CO-3993 (antisense eG*e[5mC]*e[5mC]*e[5mC]*e[5mC]*eT*eT*eG*eA*eA*eT*eA*eA*eT*eT*eT*eT*eT*eG*eT) | 1 | 
32 | CO-7151: derivative ASO with additional chemical modifications based on parent ASO CO-4517 (antisense e[5mC]*e[5mC]*eT*eT*eA*lG*dG*dA*lG*dG*dA*dT*dT*lA*dT*dT*lT*eA*eA*e[5mC]*e[5mC]*eT) | 1.498 | 
33 | CO-4059 (antisense eG*eT*eA*eA*eG*e[5mC]*eT*e[5mC]*eA*eG*eG*e[5mC]*eAeA*eA*eG*eG*eA*eG*eA) | 1.186 | 
34 | CO-11218 (antisense eG*eTlG*eG*lAeG*l[5mC]*eAlA*eA*l[5mC]eT*lA*eGlG*e[5mC]*lAe[5mC]*eT*eG) |  | ABCB11 FC mRNA (5 μM ASO vs. untreated): 2.86 fold change
35 | CO-11207 (antisense eT*eG*eTeT*eT*eTeG*e[5mC]*eTeT*eG*eGeT*e[5mC]*eAeA*eG*eAeG*eG) |  | ABCB11 FC mRNA (5 μM ASO vs. untreated): 0.91 fold change
36 | CO-4514 (antisense eG*e[5mC]*eG*eG*eG*eA*eT*eT*eA*eG*eA*eT*eG*eA*eG*eG*eT*e[5mC]*eT*eA) | 1.175 | 
37 | CO-4025 (antisense eA*e[5mC]*eG*e[5mC]*eT*eA*e[5mC]*eA*eA*eT*eA*e[5mC]*eT*eT*eG*eG*eA*eT*eA*eG) | 0.832 | 
38 | CO-4486 (antisense eG*eG*eA*e[5mC]*eT*eG*e[5mC]*eG*eT*eG*eA*e[5mC]*eT*e[5mC]*eA*eG*eG*eT*eT*eA) | 1.151 | 
39 | CO-4517: parent ASO targeting a human ABCB11 regRNA, chemically modified to CO-7141 etc. (antisense e[5mC]*eT*eT*eA*eG*eG*eA*eG*eG*eA*eT*eT*eA*eT*eT*eT*eA*eA*e[5mC]*e[5mC]) | 0.914 | 
40 | CO-4512 (antisense eA*eA*e[5mC]*eG*eGeAeAeG*eG*eGeTeT*eAeA*eA*eG*eG*eT*eA*eT) | 1.087 | 
41 | CO-7091 (eA*e[5mC]*e[5mC]*l[5mC]*e[5mC]*l[5mC]*e[5mC]*lT*e[5mC]*lA*e[5mC]*l[5mC]*eT*lT*eG*lG*eT*lT*e[5mC]*e[5mC]; antisense) | 1.164 | 
42 | CO-4041 (antisense eT*e[5mC]*e[5mC]*eA*eA*eG*eG*e[5mC]*e[5mC]*eT*eG*eT*eT*eG*eA*e[5mC]*eA*e[5mC]*e[5mC]*e[5mC]) | 0.963 | 
43 | CO-6676 (antisense eT*eA*eA*eA*eG*e[5mC]*eA*eA*eG*e[5mC]*eT*eG*eT*eG*eT*eG*eG*eA*eA*eG) | 1.204 | 
44 | CO-3996 (antisense eT*eT*eG*eT*e[5mC]*eT*e[5mC]*eT*eG*eG*eT*eT*eG*eAeA*eG*e[5mC]*e[5mC]*eT*e[5mC]) | 2.097 | 
45 | CO-7192 (eT*eG*eG*l[5mC]*eG*eT*eT*lA*eT*eT*eA*lA*eT*eT*e[5mC]*lT*eA*e[5mC]*eA*eG; antisense) | 1.591 | 
46 | CO-4053 (antisense eG*eA*eG*e[5mC]*eT*eT*e[5mC]*eA*eT*e[5mC]*eT*eG*eG*eT*eG*eT*eG*eT*e[5mC]*e[5mC]) | 1.218 | 
